For test [1], the system named is NFκB. The test can be described thus: Electrophoretic mobility shift assay for NF-κB activation. The test is classed as cell-based, human. Conditions: HaCaT nuclear extracts, 10^−7 M. The source says: Electrophoretic mobility shift assay (EMSA) was done using the Odyssey Infrared Imaging System (LI-COR, Inc., Lincoln, Nebr.). The synthetic IRDye-labeled oligonucleotide (LI-COR) used for the DNA mobility shift assay contained the wild-type VDRE sequence sp1 promoter and part of INVOLUCRIN sequence contained the sequence: 5′-GCGGGAGGCAGATCTGGCAGATACTGA-3′ (SEQ ID NO: 3). Oligo was end labeled with infrared dye 700. Unlabeled oligo contained the same sequence. The DNA binding reaction was set up using 2.5 μg of the nuclear extract mixed with oligonucleotide and gel shift binding buffer consisting of: 2.5 mmol/L DTT, 0.25% Tween-20 and 0.25 mg/ml poly(dl):poly(dC) according to the LI-COR protocol. The reaction was incubated at room temperature in the dark for 30 minutes. For NF-κB activation p65 antibody was added to the 1 sample and incubated for the 30 min. Orange loading dye (2 μl of 10×) was added to each sample and loaded on the prerun 5% polyacrylamide gel and ran at 80V for 1 hour. The gel was scanned using Odyssey Infrared Imaging System.
HaCaT keratinocytes were treated with 20,23-dihydroxycholecalciferol for indicated time: 0 h, 30 min, 1 h, 4 h, 16 h and 24 h, at the concentration of 10^−7 [M]. […]

Test [2] concerns mouse erytholeukemia cells (Mel). Kind of test: Viable cell count, MEL cells. The format is cell-based. Particulars: 10^-7 M, 7 days. The protocol: K562 human chronic myeloid leukemia (erythroleukemia) and MEL mouse erytholeukemia cells were cultured in RPMI 1640 containing 10% FBS and treated with the drugs at concentrations 0.1 μM. A 0.1% ethanol (EtOH) or 2% DMSO were used as negative or positive control, respectively to estimate the vehicle effect and the ability of the cells to differentiate. Media were exchanged every 72 h and drugs added every day. Growth of cultures was estimated by counting number of viable cells (trypan blue negative cells) as described previously.

The test system of test [3] is TNFα. Kind of test: LPS-induced TNFα production by PBMC. The format is cell-based. Conditions: normal human PBMC, LPS (10 pg/ml), 10^−8M.
Test [4] has as its system human prostate carcinoma cell line PC-3. The test can be described thus: Proliferation of PC-3 prostate carcinoma cells. The format is cell-based. Particulars: PC-3, 72 h. The protocol: Cells were seeded in 96-well plate and incubated with 20-hydroxycholecalciferol in DMEM medium containing 5% FBS for 48 h (FIG. 25A) or 72 h (FIG. 25C) or for 24 h after a 12 h synchronization in serum free medium (FIG. 25D). […] was added for a final 18 h (FIGS. 25A, 25D) or 12 h (FIG. 25C) of incubation or cells were assessed with sulforhodamine assay (FIG. 25C). Data is shown as mean±SEM (n=5; FIG. 24C) or mean±SEM (n=6; FIGS. 24A, 24C, 24D) and was analyzed using GraphPrism 4.0.

Test [5] concerns MD-MBA-231. The test can be described thus: Flow cytometry cell cycle and subG1, MD-MBA-231. The format is cell-based, human. Particulars: MD-MBA-231, 24 h. The procedure:
(§1) MD-MBA-231, MG-63, PC-3, and WM164 cells were seeded into Petri dishes and then incubated for 24 h with 20-hydroxycholecalciferol in DMEM medium containing 5% FBS. Then cells were fixed, DNA stained and samples read with flow cytometer as described (7). Data was analyzed with Cell Quest (BD Biosciences). Cell cycle phases were assessed in viable cell populations and subG1 contents were calculated within whole cell population.
On the technique in general: A flow cytometer gives signals particle by particle.

In test [6] the test system is VDRE. Kind of test: Electrophoretic mobility shift assay for VDR activation (VDRE probe). The format is cell-based, human. Conditions: HaCaT nuclear extracts, 10 nM, 24 h. A general note: Mobility shift assays separate free from complexed probe on a gel.
In test [7] the test system is PC-3. The test can be described thus: Flow cytometry cell cycle and subG1, PC-3. Conditions: PC-3, 24 h. The format is cell-based, human. The procedure:
as §1

Test [8] concerns AbC1 hamster melanoma cells. Kind of test: Proliferation (DNA synthesis) of AbC1. The test is classed as cell-based. Conditions: AbC1, 72 h. The procedure: To measure DNA synthesis, keratinocytes, melanoma or prostate cancer cells were plated in 96-well plates. After overnight incubation tested compounds were added to the medium to achieve final concentrations 10^−7-10^−10 [M]. 100 μl of medium per well containing vitamin D3 compound was added to the cells. After 36 hours of incubation [3H]-thymidine (specific activity 88.0 Ci/mmol; Amersham Biosciences, Picataway, N.Y., USA) was added at 1 μCi/mL medium. After 12 hours, media were discarded, cells detached with trypsin and harvested on a glass fiber filter (Packard, Meriden, Calif., USA). 3H-radioactivity was measured with a beta counter (Direct Beta-Counter Matrix 9600; Packard).
HaCaT keratinocytes were an incubated for 48 h (FIG. 48A) or 72 h (FIG. 48B) in the presence of graded concentrations of 20(OH)D2 and/or 1,25(OH)2D3. […] Data are shown as mean±SD (n 3); *, p<0.05; **, p<0.01.

What is called EC50 is the concentration needed to bring the measured effect to its halfway point.

On to `C=C1CC[C@H](O)C/C1=C/C=C1\CCC[C@]2(C)[C@@H](C(C)(O)CC(O)CC(C)C)CC[C@@H]12` (stereo partly drawn) [20,23-dihydroxycholecalciferol, (5Z,7E)-9,10-secocholesta-5,7,10(19)-triene-3β,20,23-triol], for which, in test [1], the “NFκB DNA-binding activity (EMSA)” value is recorded as “inhibited the NFκB binding activity”.

As to `C=C1CC[C@H](O)C/C1=C/C=C1\CCC[C@]2(C)[C@@H](C(C)=O)CC[C@@H]12` [pD3, (5Z,7E)-3β-hydroxy-9,10-secopregna-5,7,10(19)-trien-20-one], in test [2], the “proliferation of mouse erytholeukemia cells (Mel)” value is reported as “inhibit proliferation”.

In turn, `C=C1CC[C@H](O)C/C1=C/C=C1\CCC[C@@]2(C)[C@H]1CC[C@@H]2[C@@](C)(O)CCCC(C)C` [20(OH)D3, (5Z,7E)-9,10-secocholesta-5,7,10(19)-triene-3β,20-diol] came in with a TNFα production in test [3] of 2609 ± 1961 pg/mL. Further, the EC50 in test [4] stood at 0.57 µM. In addition, in test [5], the “G0/G1 of viable cells” value worked out at 47%, the “G2/M of viable cells” value amounted to 10, the “S of viable cells” value worked out at 43% and the “Viable Cells” value is 8. The compound further registered a subG1 in test [5] (whole cell population) of 92. Also, the “binding of protein complexes to VDRE probe” value in test [6] was “stimulated binding activity of protein complexes to VDRE probe”. Moreover, in test [7], the “G0/G1 of viable cells” value is 24%, the “G2/M of viable cells” value is 0, the “S of viable cells” value worked out at 76% and the “Viable Cells” value was determined as 4. The compound further came in with a subG1 in test [7] (whole cell population) of 96.

With `C=C1/C(=C\C=C2/CCC[C@]3(C)[C@@H]([C@H](C)CCCC(C)(C)O)CC[C@@H]23)C[C@@H](O)C[C@@H]1O` [1α,25-dihydroxycholecalciferol, (5Z,7E)-9,10-secocholesta-5,7,10(19)-triene-1α,3β,25-triol, reference compound], in test [8], the proliferation result is reported as “Dose dependent inhibition of the proliferation”.

Values taken from patent US20120258938A1, “Enzymatic Production or Chemical Synthesis and Uses for 5,7-Dienes and UVB Conversion Products Thereof” (priority 2008, published 2012).
